# Where no end group is shown, it is not given here.
# Experiments:
# [1] = system: LHRH-induced FSH secretion by mouse pituitary; experiment: FSH-suppressing (inhibin) activity, in vitro mouse pituitary system; format: cell-based; details: for ED50 (FSH-suppressing activity) / times more active than alpha-IB-31 in suppressing FSH (follitropin) release: mouse pituitaries in vitro; for ED50 (FSH-suppressing activity): LHRH-induced FSH secretion, 95% confidence limits in parenthesis; for times more active than alpha-IB-31 in suppressing FSH (follitropin) release: text statement; for Relative Potency (FSH-suppressing activity): relative to alpha-IB-31 = 1.0
# Description: FIG. 6 is a graphical illustration of the effect of alpha-IB-31, alpha-IB-52, and alpha-IB-92 on LHRH-induced FSH secretion by mouse pituitary. Means ±SEM (n=5) are shown. On the graph solid circles represent alpha-IB-31; open circles represent alpha-IB-52; solid triangles represent alpha-IB-92.
# Disc electrophoresis in polyacrylamide slab gels was performed as described by Reisfield, et al. (1962). The gels were stained with Coomassie Blue (R250). NaDodSO4 gel electrophoresis was carried out as described by Laemmli (1970). The inhibin activity was assayed by the in vitro mouse pituitary system (Yamashiro, et al., 1984; Ramasharma, et al., 1981).
# FIG. 6 presents bioassay data for alpha-IB-31, alpha-IB-52 and alpha-IB-92 in suppressing the lutropin-releasing hormone (LHRH)-induced FSH secretion by using mouse pituitaries in vitro. […] The addition of 40 amino acids at the NH2 -terminus of alpha-IB-52 greatly enhance the inhibin activity.
# [2] = system: rabbit antiserum to alpha-IB-31; experiment: RIA of alpha-inhibins using rabbit antiserum to ILP (displacement of labelled [Tyr4]-alpha-IB-31); format: binding; details: for potency in displacing labelled [Tyr4]-alpha-IB-31, relative to alpha-IB-31: antiserum raised against alpha-IB-31, text statement; for ED50 (RIA): rabbit antiserum to ILP; for ED50 (RIA) / Relative Potency (RIA): 95% confidence limits in parenthesis; for Relative Potency (RIA): relative to alpha-IB-31 = 1.00
# Description: Radioimmunoassay was performed with rabbit antiserum to alpha-IB-31. Amino acid analyses were performed in an automatic amino acid analyzer (Model 119C, Beckman) as described by Spackman, et al. (1958). The NH2 -terminal residue was determined by the dansyl-Edman procedure (Gray, 1967). For COOH-terminal residue analysis, carboxypeptidase Y digests were carried out in 1M pyridine acetate buffer (pH 5.5) for 4 hr at 37° C. with an enzyme-to-substrate ratio of 1:50. Trypsin digestions were performed with an enzyme-to-substrate ratio of 1:50 in 0.05M Tris/0.01 M Mg^2+, pH 8.5, at 37° C. for 4 hr.
# Alpha-IB-52 and alpha-IB-92 cross-react to an antiserum raised against alpha-IB-31. They displace labelled [Tyr^4 ]-alpha-IB-31 with 60% of the potency of alpha-IB-31.
# [3] = system: pituitary FSH secretion; details: in vitro and in vivo, Yamashiro et al. (1984); cited from earlier work
substance,measurement,setting,value
"HNKQEGRDHDKSKGHFHRVVIHHKGGKAHRGTQNPSQDQGNSPSGKGISSQY [alpha-IB-52, alpha-inhibin-52]",ED50 (FSH-suppressing activity),[1],0.30 (0.18-0.52) pmol/ml
same,times more active than alpha-IB-31 in suppressing FSH (follitropin) release,[1],3.4 times
same,Relative Potency (FSH-suppressing activity),[1],3.4
same,"potency in displacing labelled [Tyr4]-alpha-IB-31, relative to alpha-IB-31",[2],60%
same,ED50 (RIA),[2],65 (45-92) fmoles
same,Relative Potency (RIA),[2],0.58 (0.31-1.1)
alpha-inhibin-92 [alpha-IB-92],ED50 (FSH-suppressing activity),[1],0.025 (0.01-0.049) pmol/ml
same,times more active than alpha-IB-31 in suppressing FSH (follitropin) release,[1],40 times
same,times more active than alpha-IB-31 in suppressing FSH (follitropin) release,[1]; listed as alpha-inhibin-92,over 40 times
same,Relative Potency (FSH-suppressing activity),[1],40.5
same,"potency in displacing labelled [Tyr4]-alpha-IB-31, relative to alpha-IB-31",[2],60%
same,ED50 (RIA),[2],63 (42-94) fmoles
same,Relative Potency (RIA),[2],0.60 (0.31-1.2)
"HNKQEGRDHDKSKGHFHRVVIHHKGGKAHRG [alpha-IB-31, alpha-inhibin-31, reference compound]",ED50 (FSH-suppressing activity),[1],1.02 (0.34-2.9) pmol/ml
same,Relative Potency (FSH-suppressing activity),[1],1.0
same,ED50 (RIA),[2],38 (29-50) fmoles
same,Relative Potency (RIA),[2],1.00
same,suppression of pituitary FSH secretion,[3],suppresses pituitary FSH secretion in vitro and in vivo
